{"source": "paper PMC5500234", "about": "(Chemistry (Weinheim an der Bergstrasse, Germany), 2016)", "target": "LeuT (bacterial leucine transporter) (Aquifex aeolicus, UniProt O67854)", "experiment": "scintillation proximity assay", "format": "binding", "conditions": "labelled compound; room temperature, […] days; DDM or MNA-C12/C13/C14"}
{"smiles": "CC(C)C[C@H](N)C(=O)O", "note": "[[3H]-leucine]", "values": [{"measurement": "scintillation proximity assay (SPA), radioligand binding", "result": "measuring the ability to bind [^3H]-leucine via scintillation proximity assay (SPA)"}]}
